One assay concerns the target T1, p38alpha (Homo sapiens, UniProt Q16539).
T1 construct: purchased Invitrogen PV3304
The assay is described as follows: P38Alpha enzyme inhibition assay (Alphascreen kinase activity assay). The format is biochemical. The settings on record: 100 pM p38alpha, 250 μM ATP, 2 hours pre-incubation at 25° C., read-out: p38α inhibition (IC50 values). The gist of the method: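 p38α (100 pM) with ATF-2 fusion protein substrate (0.3 µg/ml) in pH 7.5 HEPES/MgCl2 buffer, 1% DMSO, preincubated 2 h at 25°C with compound. Reaction started with 250 µM ATP, ran 1 h at 25°C, then stopped with EDTA. Phospho-ATF2 antibody detected by AlphaScreen luminescence; IC50 from concentration-response curves.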

Assay [1] concerns LPS-stimulated TNFα release from PBMCs. The assay is described as follows: LPS-stimulated PBMC TNFα release assay. The format is cell-based. To be noted: inhibition of TNFα release, human PBMCs, LPS 10 ng/ml, 18 h, ELISA, read-out: p38α inhibition (IC50 values). The gist of the method:
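Healthy-donor human PBMCs, density-gradient isolated, preincubated 1 h at 37 °C with compound in 1% FBS RPMI 1640, then stimulated with LPS (10 ng/ml) for 18 h. Supernatant TNFα by ELISA; IC50 from dose-response of % inhibition of control release, n≥3 experiments.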
On the technique in general: An ELISA detects its analyte on a solid surface through an enzyme-linked reagent.

Where a name gives a salt, the structure may show the parent alone. A value given as a limit tells only on which side of the number the result lay.

T1 sequence (Q16539 whole entry): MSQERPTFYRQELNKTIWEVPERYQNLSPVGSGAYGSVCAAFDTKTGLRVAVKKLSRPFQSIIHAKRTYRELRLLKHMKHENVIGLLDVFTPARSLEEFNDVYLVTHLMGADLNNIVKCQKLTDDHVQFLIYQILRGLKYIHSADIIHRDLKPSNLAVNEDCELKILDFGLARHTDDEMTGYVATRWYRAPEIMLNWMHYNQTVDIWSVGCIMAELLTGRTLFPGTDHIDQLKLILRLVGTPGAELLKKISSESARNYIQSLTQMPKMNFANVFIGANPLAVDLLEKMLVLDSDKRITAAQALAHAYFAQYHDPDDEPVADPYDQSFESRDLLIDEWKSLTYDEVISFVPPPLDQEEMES

One may read the IC50 as the concentration needed to halve the response being measured. `Cc1ccc(-n2nc(C(C)(C)C)cc2NC(=O)N[C@H]2CC[C@@H](Oc3ccc4nnc(N5CCC(CO)CC5)n4c3)c3ccccc32)cc1` [Example 54, 1-(5-tert-Butyl-2-p-tolyl-2H-pyrazol-3-yl)-3-{(1S,4R)-4-[3-(4-hydroxymethyl-piperidin-1-yl)-[1,2,4]triazolo[4,3-a]pyridin-6-yloxy]-1,2,3,4-tetrahydro-naphthalen-1-yl}-urea]: the IC50 (at p38alpha; in assay [1]) was less than 10 nM each time.
For `Cc1ccc(-n2nc(C(C)(C)C)cc2NC(=O)N[C@H]2CC[C@H](Oc3ccc4nnc(N5CCCCC5)n4c3)c3ccccc32)cc1` [Example 55, 1-(5-tert-Butyl-2-p-tolyl-2H-pyrazol-3-yl)-3-[(1S,4S)-4-(3-piperidin-1-yl-[1,2,4]triazolo[4,3-a]pyridin-6-yloxy)-1,2,3,4-tetrahydro-naphthalen-1-yl]-urea], the IC50 (at p38alpha; in assay [1]) was less than 10 nM in each case.
In the case of `CC(C)(C)c1cc(NC(=O)N[C@H]2CC[C@@H](Oc3ccc4nnc(N5CCC(O)CC5)n4c3)c3ccccc32)n(-c2ccc(CO)cc2)n1` [Example 57, 1-[5-tert-Butyl-2-(4-hydroxymethyl-phenyl)-2H-pyrazol-3-yl]-3-{(1S,4R)-4-[3-(4-hydroxy-piperidin-1-yl)-[1,2,4]triazolo[4,3-a]pyridin-6-yloxy]-1,2,3,4-tetrahydro-naphthalen-1-yl}-urea], the figures for the concentration for half-maximal inhibition (IC50) (at p38alpha; in assay [1]) were less than 10 nM and 10 to 100 nM, respectively.
For `Cc1ccc(-n2nc(C(C)(C)C)cc2NC(=O)N[C@H]2CC[C@@H](Oc3ccc4nnc([C@@H]5CCCN5C(C)C)n4c3)c3ccccc32)cc1` [Example 58, 1-(5-tert-Butyl-2-p-tolyl-2H-pyrazol-3-yl)-3-{(1S,4R)-4-[3-((S)-1-isopropyl-pyrrolidin-2-yl)-[1,2,4]triazolo[4,3-a]pyridin-6-yloxy]-1,2,3,4-tetrahydro-naphthalen-1-yl}-urea], the IC50 (at p38alpha; in assay [1]) was less than 10 nM each time.
As for `Cc1ccc(-n2nc(C(C)(C)C)cc2NC(=O)N[C@H]2CC[C@@H](Oc3ccc4nnc(N(C)C)n4c3)c3ccccc32)cc1` [Example 59, 1-(5-tert-Butyl-2-p-tolyl-2H-pyrazol-3-yl)-3-[(1S,4R)-4-(3-dimethylamino-[1,2,4]triazolo[4,3-a]pyridin-6-yloxy)-1,2,3,4-tetrahydro-naphthalen-1-yl]-urea], the IC50 (at p38alpha; in assay [1]) was less than 10 nM each time.
As to `Cc1ccc(-n2nc(C(C)(C)C)cc2NC(=O)N[C@H]2CC[C@@H](Oc3ccc4nnc([C@H]5CCCN5C)n4c3)c3ccccc32)cc1` [Example 60, 1-(5-tert-Butyl-2-p-tolyl-2H-pyrazol-3-yl)-3-{(1S,4R)-4-[3-((R)-1-methyl-pyrrolidin-2-yl)-[1,2,4]triazolo[4,3-a]pyridin-6-yloxy]-1,2,3,4-tetrahydro-naphthalen-1-yl}-urea], the IC50 (at p38alpha; in assay [1]) was less than 10 nM in each case.
Turning to `CCN1CCC[C@H]1c1nnc2ccc(O[C@@H]3CC[C@H](NC(=O)Nc4cc(C(C)(C)C)nn4-c4ccc(C)cc4)c4ccccc43)cn12` [Example 61, 1-(5-tert-Butyl-2-p-tolyl-2H-pyrazol-3-yl)-3-{(1S,4R)-4-[3-((S)-1-ethyl-pyrrolidin-2-yl)-[1,2,4]triazolo[4,3-a]pyridin-6-yloxy]-1,2,3,4-tetrahydro-naphthalen-1-yl}-urea], the half-inhibitory concentration (IC50) (at p38alpha; in assay [1]) was less than 10 nM throughout.
Take `Cc1ccc(-n2nc(C(C)(C)C)cc2NC(=O)N[C@H]2CC[C@@H](Oc3ccc4nnc([C@@H]5CCCCN5C)n4c3)c3ccccc32)cc1` [Example 62, 1-(5-tert-Butyl-2-p-tolyl-2H-pyrazol-3-yl)-3-{(1S,4R)-4-[3-((S)-1-methyl-piperidin-2-yl)-[1,2,4]triazolo[4,3-a]pyridin-6-yloxy]-1,2,3,4-tetrahydro-naphthalen-1-yl}-urea]: the IC50 (at p38alpha; in assay [1]) was less than 10 nM throughout.
As for `Cc1ccc(-n2nc(C(C)(C)C)cc2NC(=O)N[C@H]2CC[C@@H](Oc3ccc4nnc(N5CCC[C@H](O)C5)n4c3)c3ccccc32)cc1` [Example 63, 1-(5-tert-Butyl-2-p-tolyl-2H-pyrazol-3-yl)-3-{(1S,4R)-4-[3-((S)-3-hydroxy-piperidin-1-yl)-[1,2,4]triazolo[4,3-a]pyridin-6-yloxy]-1,2,3,4-tetrahydro-naphthalen-1-yl}-urea], the IC50 (on p38alpha; in assay [1]) was less than 10 nM each time.
In the case of `Cc1ccc(-n2nc(C(C)(C)C)cc2NC(=O)N[C@H]2CC[C@@H](Oc3ccc4nnc(N5CCC[C@@H](O)C5)n4c3)c3ccccc32)cc1` [Example 64, 1-(5-tert-Butyl-2-p-tolyl-2H-pyrazol-3-yl)-3-{(1S,4R)-4-[3-((R)-3-hydroxy-piperidin-1-yl)-[1,2,4]triazolo[4,3-a]pyridin-6-yloxy]-1,2,3,4-tetrahydro-naphthalen-1-yl}-urea], the IC50 (on p38alpha; in assay [1]) was less than 10 nM each time.
With `CN1CCCC[C@H]1c1nnc2ccc(O[C@@H]3CC[C@H](NC(=O)Nc4cc(C(C)(C)C)nn4-c4ccc(CO)cc4)c4ccccc43)cn12` [Example 65, 1-[5-tert-Butyl-2-(4-hydroxymethyl-phenyl)-2H-pyrazol-3-yl]-3-{(1S,4R)-4-[3-((S)-1-methyl-piperidin-2-yl)-[1,2,4]triazolo[4,3-a]pyridin-6-yloxy]-1,2,3,4-tetrahydro-naphthalen-1-yl}-urea, partial formate salt], the IC50 (on p38alpha; in assay [1]) was less than 10 nM throughout.
With `Cc1ccc(-n2nc(C(C)(C)C)cc2NC(=O)N[C@H]2CC[C@@H](Oc3ccc4nnc(N5CCC(CCO)CC5)n4c3)c3ccccc32)cc1` [Example 66, 1-(5-tert-Butyl-2-p-tolyl-2H-pyrazol-3-yl)-3-{(1S,4R)-4-[3-(4-hydroxyethyl-piperidin-1-yl)-[1,2,4]triazolo[4,3-a]pyridin-6-yloxy]-1,2,3,4-tetrahydro-naphthalen-1-yl}-urea], the IC50 (on p38alpha; in assay [1]) was less than 10 nM each time.
As for `Cc1ccc(-n2nc(C(C)(C)C)cc2NC(=O)N[C@H]2CC[C@@H](Oc3ccc4nnc(N5CCCCCC5)n4c3)c3ccccc32)cc1` [Example 67, 1-[(1S,4R)-4-(3-Azepan-1-yl-[1,2,4]triazolo[4,3-a]pyridin-6-yloxy)-1,2,3,4-tetrahydro-naphthalen-1-yl]-3-(5-tert-butyl-2-p-tolyl-2H-pyrazol-3-yl)-urea], the IC50 (at p38alpha; in assay [1]) was less than 10 nM throughout.
For `Cc1ccc(-n2nc(C(C)(C)C)cc2NC(=O)N[C@H]2CC[C@@H](Oc3ccc4nnc(N5CCN(C)CC5)n4c3)c3ccccc32)cc1` [Example 68, 1-(5-tert-Butyl-2-p-tolyl-2H-pyrazol-3-yl)-3-{(1S,4R)-4-[3-(4-methyl-piperazin-1-yl)-[1,2,4]triazolo[4,3-a]pyridin-6-yloxy]-1,2,3,4-tetrahydro-naphthalen-1-yl}-urea], the 50% inhibitory concentration (IC50) (on p38alpha; in assay [1]) was less than 10 nM each time.
Turning to `Cc1ccc(-n2nc(C(C)(C)C)cc2NC(=O)N[C@H]2CC[C@@H](Oc3ccc4nnc(N5CCCN(C)CC5)n4c3)c3ccccc32)cc1` [Example 69, 1-(5-tert-Butyl-2-p-tolyl-2H-pyrazol-3-yl)-3-{(1S,4R)-4-[3-(4-methyl-[1,4]diazepan-1-yl)-[1,2,4]triazolo[4,3-a]pyridin-6-yloxy]-1,2,3,4-tetrahydro-naphthalen-1-yl}urea], the IC50 (at p38alpha; in assay [1]) was less than 10 nM in each case.
For the compound `CC(C)(C)c1cc(NC(=O)N[C@H]2CC[C@@H](Oc3ccc4nnc(N5CCCCC5)n4c3)c3ccccc32)n(-c2ccc(O)cc2)n1` [Example 70, 1-[5-tert-Butyl-2-(4-hydroxy-phenyl)-2H-pyrazol-3-yl]-3-[(1S,4R)-4-(3-piperidin-1-yl-[1,2,4]triazolo[4,3-a]pyridin-6-yloxy)-1,2,3,4-tetrahydro-naphthalen-1-yl]-urea], the IC50 (on p38alpha; in assay [1]) was less than 10 nM in each case.
Turning to `CC(C)(C)c1cc(NC(=O)N[C@H]2CC[C@@H](Oc3ccc4nnc(N5CCCCC5)n4c3)c3ccccc32)n(-c2ccc(C#N)cc2)n1` [Example 71, 1-[5-tert-Butyl-2-(4-cyano-phenyl)-2H-pyrazol-3-yl]-3-[(1S,4R)-4-(3-piperidin-1-yl-[1,2,4]triazolo[4,3-a]pyridin-6-yloxy)-1,2,3,4-tetrahydro-naphthalen-1-yl]-urea], the IC50 (at p38alpha; in assay [1]) was less than 10 nM each time.
As for `Cc1ccc(-n2nc(C(C)(C)C)cc2NC(=O)N[C@H]2CC[C@H](Oc3ccc4nnc([C@@H]5CCCN5C)n4c3)c3ccccc32)cc1` [Example 72, 1-(5-tert-Butyl-2-p-tolyl-2H-pyrazol-3-yl)-3-{(1S,4S)-4-[3-((S)-1-methyl-pyrrolidin-2-yl)-[1,2,4]triazolo[4,3-a]pyridin-6-yloxy]-1,2,3,4-tetrahydro-naphthalen-1-yl}-urea], the IC50 (at p38alpha; in assay [1]) was less than 10 nM throughout.
`CN1CCC[C@H]1c1nnc2ccc(O[C@@H]3CC[C@H](NC(=O)Nc4cc(C(C)(C)C)nn4-c4ccc(O)cc4)c4ccccc43)cn12` [Example 73, 1-[5-tert-Butyl-2-(4-hydroxy-phenyl)-2H-pyrazol-3-yl]-3-{(1S,4R)-4-[3-((S)-1-methyl-pyrrolidin-2-yl)-[1,2,4]triazolo[4,3-a]pyridin-6-yloxy]-1,2,3,4-tetrahydro-naphthalen-1-yl}-urea]: the IC50 (on p38alpha; in assay [1]) was less than 10 nM in each case.
